# Where two headings read alike, the source gives them in different places.
# Biological target: PRMT5/MEP50 complex (Homo sapiens (Human), UniProt O14744)
# Assay: PRMT5:MEP50 FlashPlate Assay (histone H4 peptide substrate, plus and minus MTA)
# Assay type: biochemical
# Protocol: The PRMT5 inhibitory activity of compounds of the present invention was determined using either a PRMT5:MEP50 FlashPlate Assay (Reaction Biology Corporation) or a PRMT5:MEP50 HotSpot Assay (Reaction Biology Corporation).
# 1. PRMT5:MEP50 FlashPlate Assay
# [1] = IC50 + 2 μM MTA (nM), in the presence of 2 μM MTA
# [2] = in the absence of MTA, read-out: IC50
# Sequence of PRMT5/MEP50 complex (O14744 2-637): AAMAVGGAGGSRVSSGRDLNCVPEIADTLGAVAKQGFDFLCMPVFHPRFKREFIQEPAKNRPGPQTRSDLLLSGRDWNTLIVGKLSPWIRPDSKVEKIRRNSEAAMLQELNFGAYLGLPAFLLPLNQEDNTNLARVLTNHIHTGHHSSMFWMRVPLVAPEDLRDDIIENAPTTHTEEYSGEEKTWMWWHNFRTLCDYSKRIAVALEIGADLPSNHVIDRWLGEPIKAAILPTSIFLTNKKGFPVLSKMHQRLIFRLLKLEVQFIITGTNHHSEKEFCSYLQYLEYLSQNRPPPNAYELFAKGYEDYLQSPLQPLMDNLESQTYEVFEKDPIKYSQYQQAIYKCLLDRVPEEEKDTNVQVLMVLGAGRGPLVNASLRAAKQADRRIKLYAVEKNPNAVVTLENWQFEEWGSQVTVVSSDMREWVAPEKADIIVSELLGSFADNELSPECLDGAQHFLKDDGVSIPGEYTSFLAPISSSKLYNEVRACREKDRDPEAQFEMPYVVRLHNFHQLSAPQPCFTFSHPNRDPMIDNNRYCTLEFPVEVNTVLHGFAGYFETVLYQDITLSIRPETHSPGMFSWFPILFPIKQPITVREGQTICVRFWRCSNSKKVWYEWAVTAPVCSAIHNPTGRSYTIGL
# Sequence of PRMT5/MEP50 complex (Q9BQA1 2-342 partner): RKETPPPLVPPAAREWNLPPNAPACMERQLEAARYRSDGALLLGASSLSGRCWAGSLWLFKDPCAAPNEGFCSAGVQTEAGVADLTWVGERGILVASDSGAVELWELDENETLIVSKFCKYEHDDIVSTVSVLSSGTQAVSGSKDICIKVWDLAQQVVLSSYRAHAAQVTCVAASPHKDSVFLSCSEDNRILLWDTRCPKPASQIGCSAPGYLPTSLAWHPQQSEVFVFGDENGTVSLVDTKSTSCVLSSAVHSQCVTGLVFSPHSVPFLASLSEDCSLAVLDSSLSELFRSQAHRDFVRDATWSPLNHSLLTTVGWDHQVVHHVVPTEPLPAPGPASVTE
SMILES,IC50 [1] [nM],IC50 [2] [nM]
"Cc1ccc2ncc(-c3ccc4c(=O)[nH]nc(CN)c4c3)n2n1 [Example 4-17, 4-(aminomethyl)-6-(6-methylimidazo[1,2-b]pyridazin-3-yl)phthalazin-1(2H)-one]",150,2050
"NCc1n[nH]c(=O)c2ccc(-c3cnc4ccc(Cl)nn34)cc12 [Example 4-18, 4-(aminomethyl)-6-(6-chloroimidazo[1,2-b]pyridazin-3-yl)phthalazin-1(2H)-one]",280,4420
"NCc1n[nH]c(=O)c2ccc(-c3cnc4ccc(F)cn34)cc12 [Example 4-21, 4-(aminomethyl)-6-(6-fluoroimidazo[1,2-a]pyridin-3-yl)phthalazin-1(2H)-one]",70,1970
"Cc1nc2cnccn2c1-c1ccc2c(=O)[nH]nc(CN)c2c1 [Example 4-23, 4-(aminomethyl)-6-(2-methylimidazo[1,2-a]pyrazin-3-yl)phthalazin-1(2H)-one]",> 100000,> 100000
"Cc1cn2c(-c3ccc4c(=O)[nH]nc(CN)c4c3)cnc2cn1 [Example 4-24, 4-(aminomethyl)-6-(6-methylimidazo[1,2-a]pyrazin-3-yl)phthalazin-1(2H)-one]",840,13400
"NCc1n[nH]c(=O)c2ccc(-c3cnc4cnccn34)cc12 [Example 4-25, 4-(aminomethyl)-6-(imidazo[1,2-a]pyrazin-3-yl)phthalazin-1(2H)-one]",1700,> 100000
"NCc1n[nH]c(=O)c2ccc(-c3cnc4cccnn34)cc12 [Example 4-26, 4-(aminomethyl)-6-(imidazo[1,2-b]pyridazin-3-yl)phthalazin-1(2H)-one]",130,1730
"NCc1n[nH]c(=O)c2ccc(-c3cnc4cc(F)ccn34)cc12 [Example 4-29, 4-(aminomethyl)-6-(7-fluoroimidazo[1,2-a]pyridin-3-yl)phthalazin-1(2H)-one]",190,4030
"Cn1ncc(-c2ccc3c(=O)[nH]nc(CN)c3c2)c1C#N [Example 4-31, 4-(4-(aminomethyl)-1-oxo-1,2-dihydrophthalazin-6-yl)-1-methyl-1H-pyrazole-5-carbonitrile]",410,7630
"N#Cc1ccn2c(-c3ccc4c(=O)[nH]nc(CN)c4c3)cnc2c1 [Example 4-35, 3-(4-(aminomethyl)-1-oxo-1,2-dihydrophthalazin-6-yl)imidazo[1,2-a]pyridine-7-carbonitrile]",1100,> 100000
"NCc1n[nH]c(=O)c2ccc(-c3cnc4ccc(OC5CC5)cn34)cc12 [Example 4-37, 4-(aminomethyl)-6-(6-cyclopropoxyimidazo[1,2-a]pyridin-3-yl)phthalazin-1(2H)-one]",1.1,213
"NCc1n[nH]c(=O)c2ccc(-c3cnc4ccc(-c5ccccc5)cn34)cc12 [Example 4-39, 4-(aminomethyl)-6-(6-phenylimidazo[1,2-a]pyridin-3-yl)phthalazin-1(2H)-one]",1.7,109
"N#Cc1c[nH]c2ncc(-c3ccc4c(=O)[nH]nc(CN)c4c3)cc12 [Example 4-41, 5-(4-(aminomethyl)-1-oxo-1,2-dihydrophthalazin-6-yl)-1H-pyrrolo[2,3-b]pyridine-3-carbonitrile]",56,4810
"NCc1n[nH]c(=O)c2ccc(-c3cnc4[nH]cc(F)c4c3)cc12 [Example 4-42, 4-(aminomethyl)-6-(3-fluoro-1H-pyrrolo[2,3-b]pyridin-5-yl)phthalazin-1(2H)-one]",45,1380
"COCc1c[nH]c2ncc(-c3ccc4c(=O)[nH]nc(CN)c4c3)cc12 [Example 4-46, 4-(aminomethyl)-6-(3-(methoxymethyl)-1H-pyrrolo[2,3-b]pyridin-5-yl)phthalazin-1(2H)-one]",0.6,329
"NCc1n[nH]c(=O)c2ccc(-c3cnc4[nH]cc(CO)c4c3)cc12 [Example 4-47, 4-(aminomethyl)-6-(3-(hydroxymethyl)-1H-pyrrolo[2,3-b]pyridin-5-yl)phthalazin-1(2H)-one]",19,667
"NCc1n[nH]c(=O)c2ccc(-c3cncc(Cc4ccccc4)c3)cc12 [Example 4-50, 4-(aminomethyl)-6-(5-benzylpyridin-3-yl)phthalazin-1(2H)-one]",22,456
"NCc1n[nH]c(=O)c2ccc(-c3cncc(S(=O)(=O)c4ccccc4)c3)cc12 [Example 4-52, 4-(aminomethyl)-6-(5-(phenylsulfonyl)pyridin-3-yl)phthalazin-1(2H)-one]",18,669
"NCc1n[nH]c(=O)c2ccc(-c3cncc(Sc4ccccc4)c3)cc12 [Example 4-55, 4-(aminomethyl)-6-(5-(phenylthio)pyridin-3-yl)phthalazin-1(2H)-one]",1.2,30
"NCc1n[nH]c(=O)c2ccc(-c3cncc(Sc4cccc(Cl)c4)c3)cc12 [Example 4-56, 4-(aminomethyl)-6-(5-((3-chlorophenyl)thio)pyridin-3-yl)phthalazin-1(2H)-one]",3.8,107
"NCc1n[nH]c(=O)c2ccc(-c3cncc(Sc4ccccc4Cl)c3)cc12 [Example 4-58, 4-(aminomethyl)-6-(5-((2-chlorophenyl)thio)pyridin-3-yl)phthalazin-1(2H)-one]",1.8,36
"Cc1ccccc1Sc1cncc(-c2ccc3c(=O)[nH]nc(CN)c3c2)c1 [Example 4-59, 4-(aminomethyl)-6-(5-(o-tolylthio)pyridin-3-yl)phthalazin-1(2H)-one]",2.1,68
"Cc1ccc(Sc2cncc(-c3ccc4c(=O)[nH]nc(CN)c4c3)c2)cc1 [Example 4-60, 4-(aminomethyl)-6-(5-(p-tolylthio)pyridin-3-yl)phthalazin-1(2H)-one]",2.3,117

# Now from value to compound:
IC50 [1] [nM],IC50 [2] [nM],SMILES
260,3870,"N#Cc1ccc2ncc(-c3ccc4c(=O)[nH]nc(CN)c4c3)n2c1 [Example 4-15, 3-(4-(aminomethyl)-1-oxo-1,2-dihydrophthalazin-6-yl)imidazo[1,2-a]pyridine-6-carbonitrile]"
380,> 100000,"COc1ccn2c(-c3ccc4c(=O)[nH]nc(CN)c4c3)cnc2c1 [Example 4-19, 4-(aminomethyl)-6-(7-methoxyimidazo[1,2-a]pyridin-3-yl)phthalazin-1(2H)-one]"
47,1020,"Cc1ccc2ncc(-c3ccc4c(=O)[nH]nc(CN)c4c3)n2c1 [Example 4-20, 4-(aminomethyl)-6-(6-methylimidazo[1,2-a]pyridin-3-yl)phthalazin-1(2H)-one]"
370,8680,"NCc1n[nH]c(=O)c2ccc(-c3cnc4c(F)cccn34)cc12 [Example 4-22, 4-(aminomethyl)-6-(8-fluoroimidazo[1,2-a]pyridin-3-yl)phthalazin-1(2H)-one]"
1300,> 100000,"NCc1n[nH]c(=O)c2ccc(-c3cnc4c(F)cc(Cl)cn34)cc12 [Example 4-27, 4-(aminomethyl)-6-(6-chloro-8-fluoroimidazo[1,2-a]pyridin-3-yl)phthalazin-1(2H)-one]"
140,6790,"NCc1n[nH]c(=O)c2ccc(-c3cnc4cc(Cl)ccn34)cc12 [Example 4-28, 4-(aminomethyl)-6-(7-chloroimidazo[1,2-a]pyridin-3-yl)phthalazin-1(2H)-one]"
400,4750,"Cc1ccn2c(-c3ccc4c(=O)[nH]nc(CN)c4c3)cnc2c1 [Example 4-30, 4-(aminomethyl)-6-(7-methylimidazo[1,2-a]pyridin-3-yl)phthalazin-1(2H)-one]"
> 100000,> 100000,"Cc1nc2ccc(F)cn2c1-c1ccc2c(=O)[nH]nc(CN)c2c1 [Example 4-33, 4-(aminomethyl)-6-(6-fluoro-2-methylimidazo[1,2-a]pyridin-3-yl)phthalazin-1(2H)-one]"
110,2800,"NCc1n[nH]c(=O)c2ccc(-c3cnc4ccc(Cl)cn34)cc12 [Example 4-34, 4-(aminomethyl)-6-(6-chloroimidazo[1,2-a]pyridin-3-yl)phthalazin-1(2H)-one]"
25,850,"NCc1n[nH]c(=O)c2ccc(-c3cnc4ccc(OC(F)(F)F)cn34)cc12 [Example 4-38, 4-(aminomethyl)-6-(6-(trifluoromethoxy)imidazo[1,2-a]pyridin-3-yl)phthalazin-1(2H)-one]"
32,1520,"NCc1n[nH]c(=O)c2ccc(-c3cnc4[nH]cc(C(F)(F)F)c4c3)cc12 [Example 4-43, 4-(aminomethyl)-6-(3-(trifluoromethyl)-1H-pyrrolo[2,3-b]pyridin-5-yl)phthalazin-1(2H)-one]"
22,750,"COc1c(-c2ccc3c(=O)[nH]nc(CN)c3c2)cnn1C [Example 4-48, 4-(aminomethyl)-6-(5-methoxy-1-methyl-1H-pyrazol-4-yl)phthalazin-1(2H)-one]"
300,5930,"Cn1ncc(-c2ccc3c(=O)[nH]nc(CN)c3c2)c1Cl [Example 4-49, 4-(aminomethyl)-6-(5-chloro-1-methyl-pyrazol-4-yl)-2H-phthalazin-1-one]"
55,1140,"CN(C)c1cncc(-c2ccc3c(=O)[nH]nc(CN)c3c2)c1 [Example 4-53, 4-(aminomethyl)-6-(5-(dimethylamino)pyridin-3-yl)phthalazin-1(2H)-one]"
77,1550,"NCc1n[nH]c(=O)c2ccc(-c3cnsc3-c3ccccc3)cc12 [Example 4-54, 4-(aminomethyl)-6-(5-phenylisothiazol-4-yl)phthalazin-1(2H)-one]"
11,85,"NCc1n[nH]c(=O)c2ccc(-c3cncc(Sc4ccc(Cl)cc4)c3)cc12 [Example 4-57, 4-(aminomethyl)-6-(5-((4-chlorophenyl)thio)pyridin-3-yl)phthalazin-1(2H)-one]"
